One may read the Kd as a measure of binding affinity in units of concentration.

Each structure is given as a SMILES string.

The values that follow come from paper PMC8569811, “The Nonphysiological Reductant Sodium Dithionite and [FeFe] Hydrogenase: Influence on the Enzyme Mechanism” (Journal of the American Chemical Society, 2021).

The target in assay [1] is T1, CrHydA1 ([FeFe] hydrogenase) (Chlamydomonas reinhardtii, UniProt Q9FYU1).
T1 construct: gene hyd1; CrHydA1^PDT (chemical variant with propane dithiolate bridging ligand in [2Fe]H)
T1 sequence (Q9FYU1 57-497): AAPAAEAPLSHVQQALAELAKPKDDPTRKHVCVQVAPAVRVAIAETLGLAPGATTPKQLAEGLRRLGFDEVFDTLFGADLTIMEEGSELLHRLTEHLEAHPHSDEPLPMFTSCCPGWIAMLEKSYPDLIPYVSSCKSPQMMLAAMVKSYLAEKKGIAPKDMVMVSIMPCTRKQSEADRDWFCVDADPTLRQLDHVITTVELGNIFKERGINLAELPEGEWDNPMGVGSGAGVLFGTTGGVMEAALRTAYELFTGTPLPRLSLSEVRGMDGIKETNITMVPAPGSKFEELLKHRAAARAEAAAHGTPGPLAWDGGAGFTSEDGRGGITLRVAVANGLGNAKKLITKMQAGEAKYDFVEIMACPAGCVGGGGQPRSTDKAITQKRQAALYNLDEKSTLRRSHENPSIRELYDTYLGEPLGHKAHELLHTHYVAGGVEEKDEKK
The assay can be described thus: IR titration with Na2SO3 (source of SO2) at pH […] and […] fit. In kind it is binding.

The target of assay [2] is T2, CpHydA1 ([FeFe] hydrogenase HydA1) (Clostridium pasteurianum, UniProt P29166).
T2 sequence (P29166 1-574): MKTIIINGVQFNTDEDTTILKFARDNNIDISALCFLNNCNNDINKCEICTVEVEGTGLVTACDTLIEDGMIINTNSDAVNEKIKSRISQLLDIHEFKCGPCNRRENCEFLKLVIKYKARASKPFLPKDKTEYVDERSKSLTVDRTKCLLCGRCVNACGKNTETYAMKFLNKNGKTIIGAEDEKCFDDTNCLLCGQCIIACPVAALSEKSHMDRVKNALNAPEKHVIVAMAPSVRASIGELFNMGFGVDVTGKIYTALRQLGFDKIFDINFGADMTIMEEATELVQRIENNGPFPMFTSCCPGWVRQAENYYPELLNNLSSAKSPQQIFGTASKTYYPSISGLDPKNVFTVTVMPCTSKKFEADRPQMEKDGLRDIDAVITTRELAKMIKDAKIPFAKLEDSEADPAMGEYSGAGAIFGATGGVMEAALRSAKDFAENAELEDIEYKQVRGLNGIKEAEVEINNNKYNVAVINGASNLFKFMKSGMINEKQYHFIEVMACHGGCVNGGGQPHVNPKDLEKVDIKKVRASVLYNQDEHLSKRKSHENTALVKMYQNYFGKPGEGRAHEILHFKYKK
The assay can be described thus: IR spectroscopy, conversion to HoxH with Na2SO3 at low pH. In kind it is binding.

`O=S=O` [SO2]: in assay [1], the Kd is approximately 500 nM. Besides, in assay [2], the “IR spectroscopy, conversion to HoxH with Na2SO3 at low pH” value was “SO2 binding caused formation of HoxH not only with CrHydA1 but also with the bacterial enzymes CpHydA1 and DdHydAB”.
